From patent US20120101100A1 (priority 2008, published 2012)
Counter-ions that a name gives are not always drawn.

Target: S. aureus GyrB ATPase (Staphylococcus aureus, UniProt P0A0K8)
Experiment: S. aureus (SAU) GyrB ATPase inhibition, malachite green phosphate detection (E. coli GyrA + S. aureus GyrB)
Format: biochemical
Settings: for inhibition at 1 µM: read-out: S. aureus (SAU) GyrB ATPase % Inhibition; for IC50: 10 compound concentrations, 500 μM ATP
Description: Compounds were tested for inhibition of GyrB ATPase activity using an ammonium molybdate/malachite green-based phosphate detection assay (Lanzetta, P. A., L. J. Alvarez, P. S. Reinach, and O. A. Candia, 1979, 100: 95-97). Assays were performed in multiwell plates in 100 μl reactions containing: 50 mM Hepes buffer pH 7.5, 75 mM ammonium acetate, 8.0 mM magnesium chloride, 1.0 mM ethylenediaminetetraacetic acid, 5% glycerol, 2 mM 1,4-Dithio-DL-threitol, 400 nM bovine serum albumin, 5 μg/ml sheared salmon sperm DNA, 1.25 nM E. coli GyrA, 1.25 nM S. aureus GyrB, 500 μM ATP, and compound in dimethylsulfoxide. Reactions were quenched with 150 μl of ammonium molybdate/malachite green detection reagent containing 1.2 mM malachite green hydrochloride, 8.5 mM ammonium molybdate tetrahydrate, and 1 M hydrochloric acid. Plates were read in an absorbance plate reader at 650 nm and percent inhibition values were calculated using dimethylsulfoxide (2%)-containing reactions as 0% inhibition and novobiocin-containing (2 μM) reactions as 100% inhibition controls. Compound potency was based on IC50 measurements determined from reactions performed in the presence of 10 different compound concentrations.

[1] = compound concentration of 1.0 μM unless otherwise noted, average value where assay was carried out more than once

Sequence of S. aureus GyrB ATPase (P0A0K8 whole entry): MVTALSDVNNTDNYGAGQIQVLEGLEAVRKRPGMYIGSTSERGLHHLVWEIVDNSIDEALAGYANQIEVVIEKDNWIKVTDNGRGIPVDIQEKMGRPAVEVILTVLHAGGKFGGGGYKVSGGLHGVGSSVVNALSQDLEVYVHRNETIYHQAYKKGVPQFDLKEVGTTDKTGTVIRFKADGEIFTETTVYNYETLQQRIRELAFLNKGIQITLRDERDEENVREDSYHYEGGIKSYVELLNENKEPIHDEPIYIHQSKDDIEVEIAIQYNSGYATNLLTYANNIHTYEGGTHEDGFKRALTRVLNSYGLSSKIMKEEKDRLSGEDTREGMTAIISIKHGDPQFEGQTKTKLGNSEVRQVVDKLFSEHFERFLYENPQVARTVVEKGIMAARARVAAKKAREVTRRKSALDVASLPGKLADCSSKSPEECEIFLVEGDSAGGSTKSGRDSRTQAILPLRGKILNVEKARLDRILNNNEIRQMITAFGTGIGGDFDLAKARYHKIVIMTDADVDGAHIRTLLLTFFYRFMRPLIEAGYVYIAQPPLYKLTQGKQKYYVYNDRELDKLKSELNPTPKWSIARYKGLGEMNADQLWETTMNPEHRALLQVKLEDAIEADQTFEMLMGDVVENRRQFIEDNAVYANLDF
Sequence of S. aureus GyrB ATPase (P0AES4 whole entry, further chain): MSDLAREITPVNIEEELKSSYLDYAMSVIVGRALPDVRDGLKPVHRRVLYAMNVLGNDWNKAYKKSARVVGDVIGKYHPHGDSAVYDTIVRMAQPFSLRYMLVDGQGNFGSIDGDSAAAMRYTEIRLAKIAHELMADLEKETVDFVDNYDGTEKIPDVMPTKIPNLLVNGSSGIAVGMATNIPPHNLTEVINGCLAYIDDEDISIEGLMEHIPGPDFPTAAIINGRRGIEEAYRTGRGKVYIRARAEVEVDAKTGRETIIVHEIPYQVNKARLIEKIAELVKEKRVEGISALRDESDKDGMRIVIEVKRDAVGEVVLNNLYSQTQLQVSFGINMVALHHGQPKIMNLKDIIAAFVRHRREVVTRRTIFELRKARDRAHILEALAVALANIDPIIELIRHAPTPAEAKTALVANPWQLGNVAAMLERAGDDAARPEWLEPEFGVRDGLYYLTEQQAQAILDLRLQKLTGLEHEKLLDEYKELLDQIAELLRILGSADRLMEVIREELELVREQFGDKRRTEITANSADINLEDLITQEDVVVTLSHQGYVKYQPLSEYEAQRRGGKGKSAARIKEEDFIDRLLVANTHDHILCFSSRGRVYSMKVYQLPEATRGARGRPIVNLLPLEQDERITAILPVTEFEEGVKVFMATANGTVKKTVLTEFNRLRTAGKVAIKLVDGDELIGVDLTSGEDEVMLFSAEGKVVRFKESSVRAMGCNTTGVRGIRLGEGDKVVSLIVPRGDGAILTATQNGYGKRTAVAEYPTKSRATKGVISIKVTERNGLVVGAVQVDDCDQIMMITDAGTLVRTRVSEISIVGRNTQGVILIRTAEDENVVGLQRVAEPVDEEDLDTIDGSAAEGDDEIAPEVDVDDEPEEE

Row | Compound | inhibition at 1 µM [1] | IC50 | S. aureus (SAU) GyrB ATPase % Inhibition [1]
1 | CCNC(=O)Nc1cc(-c2nc(C(F)(F)F)cs2)c(-c2cc(-c3n[nH]c(=O)o3)cnc2OC2CCCCC2)cn1 [Example 214] | 109% | – | –
2 | CCNC(=O)Nc1cc(-c2nc(C(F)(F)F)cs2)c(-c2cc(-c3nnc(C)o3)nc(N3CCOCC3)c2)cn1 [Example 87, 1-ethyl-3-(2′-morpholino-6′-(5-methyl-1,3,4-oxadiazol-2-yl)-4-(4-(trifluoromethyl)thiazol-2-yl)-3,4′-bipyridin-6-yl)urea] | 99% | – | –
3 | CCNC(=O)Nc1cc(-c2nc(-c3cccc(OC)n3)cs2)c(-c2cncc(-c3n[nH]c(=O)o3)n2)cn1 [Example 262, 1-ethyl-3-(4-(4-(6-methoxypyridin-2-yl)thiazol-2-yl)-5-(6-(5-oxo-4,5-dihydro-1,3,4-oxadiazol-2-yl)pyrazin-2-yl)pyridin-2-yl)urea] | 97% | – | –
4 | CCNC(=O)Nc1cc(-c2nc(C(F)(F)F)cs2)c(-c2cncc(C#N)n2)cn1 [Example 31, 1-(5-(6-cyanopyrazin-2-yl)-4-(4-(trifluoromethyl)thiazol-2-yl)pyridin-2-yl)-3-ethylurea] | 113% | – | –
5 | O=C(NCC(F)F)Nc1cc(-c2nc(C(F)(F)F)cs2)c(-c2cncc(-c3n[nH]c(=O)o3)c2)cn1 [Example 50, 1-(2,2-difluoroethyl)-3-(5′-(5-oxo-4,5-dihydro-1,3,4-oxadiazol-2-yl)-4-(4-(trifluoromethyl)thiazol-2-yl)-3,3′-bipyridin-6-yl)urea] | 105% | – | –
6 | CCNC(=O)Nc1cc(-c2nc(C(F)(F)F)cs2)c(-c2cncc(-c3nn(C(=O)N4CCCCC4)c(=O)o3)c2)cn1 [Example 177] | 86% | – | –
7 | CCNC(=O)Nc1cc(-c2nc(-c3cnn(C)c3)cs2)c(-c2cnc(OC)c(-c3n[nH]c(=O)o3)c2)cn1 [Example 205] | 100% | – | –
8 | O=C(Nc1cc(-c2nc(C(F)(F)F)cs2)c(-c2cncc(-c3n[nH]c(=O)o3)c2)cn1)NC1CC1 [Example 45, 1-cyclopropyl-3-(5′-(5-oxo-4,5-dihydro-1,3,4-oxadiazol-2-yl)-4-(4-(trifluoromethyl)thiazol-2-yl)-3,3′-bipyridin-6-yl)urea] | 103% | – | –
9 | CCNC(=O)Nc1cc(-c2nc(-c3cccnc3OCCOC)cs2)c(-c2cc(-c3nnc(C)o3)cnc2OC2CCOCC2)cn1 [Example 232, 1-ethyl-3-(4-(4-(2-(2-methoxyethoxy)pyridin-3-yl)thiazol-2-yl)-5′-(5-methyl-1,3,4-oxadiazol-2-yl)-2′-(tetrahydro-2H-pyran-4-yloxy)-3,3′-bipyridin-6-yl)urea] | 99% | – | –
10 | CCNC(=O)Nc1cc(-c2nc(C(F)(F)F)cs2)c(-c2cncc(-c3nnc(N4CC(O)C4)o3)c2)cn1 [Example 182] | 99% | – | –
11 | CCNC(=O)Nc1cc(-c2nc(C(F)(F)F)c(C)s2)c(-c2cncc(-c3nnc(C)o3)c2)cn1 [Example 138, 1-Ethyl-3-(5′-(5-methyl-1,3,4-oxadiazol-2-yl)-4-(5-methyl-4-(trifluoromethyl)thiazol-2-yl)-3,3′-bipyridin-6-yl)urea] | 104% | – | –
12 | CCNC(=O)Nc1cc(N2C[C@@H](C)O[C@@H](C)C2)c(-c2cncc(-c3n[nH]c(=O)o3)c2)cn1 [Example 150] | 96% | – | –
13 | CCNC(=O)Nc1cc(-c2nc(C(F)(F)F)cs2)c(-c2cc(OC3CCN(C)CC3)nc(-c3n[nH]c(=O)o3)c2)cn1 [Example 90, 1-ethyl-3-(2′-(1-methylpiperidin-4-yloxy)-6′-(5-oxo-4,5-dihydro-1,3,4-oxadiazol-2-yl)-4-(4-(trifluoromethyl)thiazol-2-yl)-3,4′-bipyridin-6-yl)urea] | 116% | – | –
14 | CCNC(=O)Nc1cc(-c2nc(C(F)(F)F)cs2)c(-c2cc(-c3n[nH]c(=O)o3)cnc2OCCN2CCN(C)CC2)cn1 [Example 99, 1-Ethyl-3-(2′-(2-(4-methylpiperazin-1-yl)ethoxy)-5′-(5-oxo-4,5-dihydro-1,3,4-oxadiazol-2-yl)-4-(4-(trifluoromethyl)thiazol-2-yl)-3,3′-bipyridin-6-yl)urea] | 97% | – | –
15 | CCNC(=O)Nc1cc(-c2nc(C(F)(F)F)cs2)c(-c2cncc(-c3nnc([C@H](N)C(C)C)o3)c2)cn1 [Example 280, (R)-1-(5′-(5-(1-amino-2-methylpropyl)-1,3,4-oxadiazol-2-yl)-4-(4-(trifluoromethyl)thiazol-2-yl)-3,3′-bipyridin-6-yl)-3-ethylurea] | 95% | – | –
16 | CCNC(=O)Nc1cc(-c2nc(C(F)(F)F)cs2)c(-c2cncc(-c3nnc([C@H]4COCCN4)o3)c2)cn1 [Example 240, (R)-1-ethyl-3-(5′-(5-(morpholin-3-yl)-1,3,4-oxadiazol-2-yl)-4-(4-(trifluoromethyl)thiazol-2-yl)-3,3′-bipyridin-6-yl)urea] | 95% | – | –
17 | CCNC(=O)Nc1cc(-c2nc(C(F)(F)F)c(C(=O)NCCOC)s2)c(-c2cncc(-c3n[nH]c(=O)o3)c2)cn1 [Example 59, 2-(6-(3-ethylureido)-5′-(5-oxo-4,5-dihydro-1,3,4-oxadiazol-2-yl)-3,3′-bipyridin-4-yl)-N-(2-methoxyethyl)-4-(trifluoromethyl)thiazole-5-carboxamide] | 98% | – | –

Row | Compound | inhibition at 1 µM [1] | IC50 | S. aureus (SAU) GyrB ATPase % Inhibition [1]
18 | CCNC(=O)Nc1cc(-c2nc(-c3ccccc3)cs2)c(-c2cc(-c3n[nH]c(=O)o3)cnc2CC)cn1 [Example 72, 1-ethyl-3-(2′-ethyl-5′-(5-hydroxy-1,3,4-oxadiazol-2-yl)-4-(4-phenylthiazol-2-yl)-3,3′-bipyridin-6-yl)urea] | 95% | – | –
19 | CCNC(=O)Nc1cc(-c2nc(-c3ccc(OC)nc3)cs2)c(-c2cncc(-c3n[nH]c(=O)o3)c2)cn1 [Example 203] | 104% | – | –
20 | CCNC(=O)Nc1cc(-c2nc(C(F)(F)F)cs2)c(-c2cc(-c3n[nH]c(=O)o3)cnc2OC(C)CN(C)C)cn1 (centres unmarked) [Example 118] | 118% | – | –
21 | 1-Ethyl-3-(5′-(5-oxo-2,5-dihydro-1H-pyrazol-3-yl)-3,3′-bipyridin-6-yl)urea [Example 17] | – | 10 nM | 102.2%
22 | CCNC(=O)Nc1cc(-c2nc(C(F)(F)F)cs2)c(-c2cncc(-c3ncc[nH]3)c2)cn1 [Example 25, 1-(5′-(1H-Imidazol-2-yl)-4-(4-(trifluoromethyl)thiazol-2-yl)-3,3′-bipyridin-6-yl)-3-ethylurea] | 100% | 3 nM | –
23 | CCNC(=O)Nc1cc(-c2nc(C(F)(F)F)cs2)c(-c2cnc(-c3n[nH]c(=O)o3)cn2)cn1 [Example 190] | 100% | – | –
24 | CCNC(=O)Nc1cc(-c2nc(C(F)(F)F)cs2)c(-c2cc(-c3nnc(C)o3)cnc2OCCN(C(C)C)C(C)C)cn1 [Example 116, 1-(2′-(2-(diisopropylamino)ethoxy)-5′-(5-methyl-1,3,4-oxadiazol-2-yl)-4-(4(trifluoromethyl)thiazol-2-yl)-3,3′-bipyridin-6-yl)-3-ethylurea] | 90% | – | –
25 | CCNC(=O)Nc1cc(-c2nc(C(F)(F)F)cs2)c(-c2cc(-c3n[nH]c(=O)o3)cnc2OCCC(=O)O)cn1 [Example 111, 3-({6′-[(ethylcarbamoyl)amino]-5-(5-oxo-4,5-dihydro-1,3,4-oxadiazol-2-yl)-4′-[4-(trifluoromethyl)-1,3-thiazol-2-yl]-3,3′-bipyridin-2-yl}oxy)propanoic acid] | 106% | – | –
26 | CCNC(=O)Nc1cc(-c2nc(C(F)(F)F)c(CNC3CCCC3)s2)c(-c2cncc(-c3n[nH]c(=O)o3)c2)cn1 [Example 53, 1-(4-(5-((cyclopentylamino)methyl)-4-(trifluoromethyl)thiazol-2-yl)-5′-(5-hydroxy-1,3,4-oxadiazol-2-yl)-3,3′-bipyridin-6-yl)-3-ethylurea hydrochloride] | 109% | – | –
27 | CCNC(=O)Nc1cc(-c2nc(C(F)(F)F)cs2)c(-c2cc(-c3n[nH]c(=O)o3)cnc2OCCN2CCOCC2)cn1 [Example 102, 1-Ethyl-3-(2′-(2-morpholinoethoxy)-5′-(5-oxo-4,5-dihydro-1,3,4-oxadiazol-2-yl)-4-(4-(trifluoromethyl)thiazol-2-yl)-3,3′-bipyridin-6-yl)urea] | 92% | – | –
28 | CCNC(=O)Nc1cc(-c2nc(C3CCOC(C)(C)C3)cs2)c(-c2cncc(-c3n[nH]c(=O)o3)c2)cn1 (centres unmarked) [Example 212] | 97% | – | –
29 | CCNC(=O)Nc1cc(-c2nc(C(F)(F)F)cs2)c(-c2cncc(-c3nn(C(=O)N(C)C)c(=O)o3)c2)cn1 [Example 158, 5-(6′-(3-Ethylureido)-4′-(4-(trifluoromethyl)thiazol-2-yl)-3,3′-bipyridin-5-yl)-N,N-dimethyl-2-oxo-1,3,4-oxadiazole-3(2H)-carboxamide] | 97% | – | –
30 | CCNC(=O)Nc1cc(-c2nc(C(F)(F)F)cs2)c(-c2cncc(C3=NOS(=O)N3)c2)cn1 (centres unmarked) [Example 20] | 111% | – | –
31 | CCNC(=O)Nc1cc(-c2nc(-c3ccccn3)cs2)c(-c2cncc(S(N)(=O)=O)c2)cn1 [Example 105, 6′-(3-Ethylureido)-4′-(4-(pyridin-2-yl)thiazol-2-yl)-3,3′-bipyridine-5-sulfonamide] | 101% | – | –
32 | CCNC(=O)Nc1cc(-c2nc(C(F)(F)F)cs2)c(-c2cncc(S(C)(=O)=O)c2)cn1 [Example 22, 1-Ethyl-3-(5′-(methylsulfonyl)-4-(4-(trifluoromethyl)thiazol-2-yl)-3,3′-bipyridin-6-yl)urea] | 114% | – | –
33 | CCNC(=O)Nc1cc(-c2nc(C(F)(F)F)cs2)c(-c2cncc(-c3nnc(N4CCN(C)CC4)o3)c2)cn1 [Example 155] | 96% | – | –
